Series [1] concerns A. fischeri. The experiment in a line: Bioluminescence inhibition assay in the Aliivibrio fischeri model system. It counts as cell-based. The conditions noted are these: for inhibitory effect on bioluminescence, upper limit in any case: any tested concentration and time, not statistically significant; for EC20: 20% inhibition of bioluminescence after 120 min exposure; for inhibition at 2000 µM: read-out: inhibition of bioluminescence. Here is the method: The time- and concentration-dependent effect of native α- and β-CDs, their N,N,N-trimethyl-ammoniopropyl derivatives, and novel alkylthio derivatives were tested in a series of short-term (30–120 min) experiments at 0.008–10 mM concentration range. To differentiate between the quorum-quenching effect and the cytotoxic effect of the CDs, bioluminescence as well as cell viability (the population growth and the enzyme activity) were determined.
(§1) The bacterial strain A. fischeri (NRRL B-111 77) was cultured and maintained in the laboratory under axenic circumstances. The 16 h old (overnight) cell culture applied for the tests was prepared by inoculating 30 mL of Photobacterium medium with an ampoule of lyophilized bacteria. The culture was shaken in the dark at 160 rpm, 24 °C, to an optical density of 0.6 at 600 nm (OD600).
The tested CD molecules were suspended in sterile distilled water and sterilized in an autoclave. A dilution series was prepared from the stock solutions (suspensions), covering a 0.04–50 mM concentration range.
The experiments were carried out with overnight A. fischeri cell culture in 96-well microtiter plates with a total volume of 250 µL. Fifty microliters of the members of the fivefold dilution series made from stock solutions were added to the wells of a sterile, transparent, 96-well, round-bottomed Sarstedt microtiter plate in four replicates. Distilled water was used as a negative control in the same volume.
To ensure the validity of data and verify the sensitivity of the bacteria, a five-member CuSO4 dilution series (1.6 ppm, 8 ppm, 40 ppm, 200 ppm, and […]) was used as a positive control. After that, 200 μL of the diluted overnight culture was added to the wells, except for the blank samples, for which 200 μL of Photobacterium medium was added instead.
The bioluminescence intensity was measured with a Fluostar Optima microplate reader (BMG Labtech, Ortenberg, Germany; fluorescence detection limit > 30 amol/well ATP) after 30, 60, and 120 min of exposure. The evaluation of the results was carried out as described by Ujaczki et al. (2015).
The determination of the concentration–response relationship is a method employed in the field of environmental toxicology, with the objective of objectively assessing the effects of different chemicals. The effective concentration endpoints (EC20 and EC50 values) of the tests are uniformly used for the quantification and comparison of the effects of chemicals and environmental matrices.

The test system of series [2] is A. fischeri. In words: Optical density measurement, population growth assay. It counts as cell-based, Aliivibrio fischeri. The conditions noted are these: for inhibition at 10000 µM: 10 mM; for inhibition at 2000 µM: 2 mM, read-out: inhibition of cell proliferation (population growth), maximum; for inhibition of population growth (optical density): within 30, 60 and 120 min, regardless of the concentration. As for the experimental part:
as §1
The measurements were carried out as described by Molnár et al. (2021). The OD was measured after the incubation period, following the bioluminescence inhibition assay with DIALAB ELx800 ELISA Microplate Reader (Dialab GmbH, Wiener Neudorf, Austria) at the wavelength of 630 nm.

For series [3], the system named is A. fischeri. The experiment in a line: Cell viability, tetrazolium (MTT) reduction assay. The class given is cell-based, Aliivibrio fischeri. The conditions noted are these: 120 min; for inhibitive effect on cell viability, maximum: 0.08 mM; for inhibition in the viability: 10 mM. Here is the method:
The cell viability assay characterizing the activity of the hydrogen transport (the dehydrogenase enzyme activity) is based on the spectrophotometric measurement of the absorbance of a formazan product of the reduction in the tetrazolium salts.
The absorbance—which we determined after 120 min of exposure—is directly proportional to the metabolic activity of the cells.
To examine the potential influence of the CDs on the vitality of the bacteria, an enzyme activity assay was applied using 3-(4,5-dimethylthiazol-2-yl)-2,5-diphenyltetrazolium bromide (MTT).
Metabolically active cells reduce the […] MTT into a black formazan product, whose concentration is directly proportional to the activity of the viable cells. Following the population growth assay, the assay was performed in the same microplates by adding 30 μL of 4 mg/mL sterile MTT solution to each well.
The microtiter plate was then incubated for 30 min until color development.

Series [4] in a line: Solubility in water at 25 °C. The class given is physicochemical. The conditions noted are these: for solubility: read-out: WS, water solubility. Here is the method: The characteristics: abbreviations (A), the molecular weight (MW), the solubility in water at 25 °C (WS), and the degree of substitution (DS) of the tested CDs are presented in Table 4 and Table 5.
In series [5] the test system is A. fischeri. Also on record: method as in PMID 33321169. The conditions noted are these: cited from earlier work.
The nature of series [6]: Aggregation studies by dynamic light scattering (volume particle size distribution). It counts as physicochemical. The conditions noted are these: 1% aqueous solution, 25 °C. As for the experimental part:
Most CDs are prone to aggregation in aqueous solution due to their numerous hydroxyl moieties.
The aggregation behavior (nanoparticle formation) was studied by photon correlation spectroscopy (dynamic light scattering) using Malvern Zetasizer Nano ZS (Malvern Instruments, Malvern, UK) equipment at 25 °C using 1% aqueous solution.

Setting [7] is: Aliivibrio fischeri, 0.5 h, 30 min.
Setting [8] is: Aliivibrio fischeri, 1 h, 60 min.
Where [9] appears, read: Aliivibrio fischeri, 2 h, 120 min.

The text below walks through data of publication PMC11241527, “Long-Chain Alkylthio Cyclodextrin Derivatives for Modulation of Quorum-Sensing-Based Bioluminescence in Aliivibrio fischeri Model System” (International Journal of Molecular Sciences, 2024).

Where two headings read alike, the source gives them in different places.

For “N,N,N-Trimethylammoniopropyl-β-CD [QA-β-CD (6), reference compound]”, the “inhibitory effect on bioluminescence, upper limit in any case” value with A. fischeri [1] was at most 35%. Further, in the series with A. fischeri [2] (0.08 mM, 30 min of exposure), the “inhibition of population growth, maximum” value is at most 34%. Besides, in the series on A. fischeri [3], the “inhibitive effect on cell viability, maximum” value was found to be 10%. Besides, in series [4], the “WS, water solubility” value was above 500000 µg/mL.

As to `CCCCCCCCCCCCSC[C@H]1O[C@@H]2O[C@H]3[C@H](O)[C@@H](O)[C@@H](O[C@H]4[C@H](O)[C@@H](O)[C@@H](O[C@H]5[C@H](O)[C@@H](O)[C@@H](O[C@H]6[C@H](O)[C@@H](O)[C@@H](O[C@H]7[C@H](O)[C@@H](O)[C@@H](O[C@H]1[C@H](O)[C@H]2O)O[C@@H]7CO)O[C@@H]6CO)O[C@@H]5CO)O[C@@H]4CO)O[C@@H]3CO` [6S-C12-α-CD (3), 6-monodeoxy-6-monododecanethiol-α-CD], the “decrease in bioluminescence intensity” value with A. fischeri [1] (0.4 mM, 120 min) was found to be 71%; with A. fischeri [1] (10 mM, 120 min) it was 79%. Moreover, the EC20 (as a rule, the concentration at which the effect reaches the 20% level) in the series on A. fischeri [1] worked out at 60 µM. In addition, in the series with A. fischeri [1] (Aliivibrio fischeri, 2 h), the EC50 (commonly the concentration at which the effect is half-maximal) turned out to be 160 µM. Also, the inhibition at 2000 µM with A. fischeri [1] (Aliivibrio fischeri, 2 h) is 85%. Moreover, the inhibition at 10000 µM in the series with A. fischeri [2] (setting [7]) was determined as 50%; with A. fischeri [2] (setting [8]), 54%; in the series on A. fischeri [2] (setting [9]), 59%. Also, the “decrease in cell viability, maximum” value with A. fischeri [3] (at 2 and 10 mM) is recorded as 40%. For the same compound, the solubility (commonly how much of the substance goes into solution per volume) in series [4] was above 10000 µg/mL.

Consider `CCCCCCCCCCCCSC[C@H]1O[C@@H]2O[C@H]3[C@H](O)[C@@H](O)[C@@H](O[C@H]4[C@H](O)[C@@H](O)[C@@H](O[C@H]5[C@H](O)[C@@H](O)[C@@H](O[C@H]6[C@H](O)[C@@H](O)[C@@H](O[C@H]7[C@H](O)[C@@H](O)[C@@H](O[C@H]8[C@H](O)[C@@H](O)[C@@H](O[C@H]1[C@H](O)[C@H]2O)O[C@@H]8CO)O[C@@H]7CO)O[C@@H]6CO)O[C@@H]5CO)O[C@@H]4CO)O[C@@H]3CO` [6S-C12-β-CD (7), 6-monodeoxy-6-monododecanethiol-β-CD], for which, in the series on A. fischeri [1], the EC20 came to 90 µM. Further, the inhibition at 2000 µM amounted to 77% in the series with A. fischeri [1] (Aliivibrio fischeri, 0.5 h); 76% with A. fischeri [1] (Aliivibrio fischeri, 1 h); 70% with A. fischeri [1] (Aliivibrio fischeri, 2 h); 72% with A. fischeri [2] (setting [7]); 69% in the series on A. fischeri [2] (setting [8]); 65% with A. fischeri [2] (setting [9]). This compound yielded an EC50 in the series with A. fischeri [1] (Aliivibrio fischeri, 2 h) of 760 µM. Further, the “vitality-reducing effect (cell viability)” value in the series on A. fischeri [3] (2 mM) came out at 41%. Besides, the solubility in series [4] is above 10000 µg/mL.

Turning to “Native α-CD [α-CD (1), reference compound]”, in the series on A. fischeri [1], the “inhibition of bioluminescence (significance)” value was “no significant inhibition” and the EC20 was 80 µM. Moreover, in the series with A. fischeri [2], the “inhibition of population growth (optical density)” value (from here on “inhibition … (optical density)”) is on record as “up to 30%”. Also, the “inhibition in the viability” value with A. fischeri [3] came to 29%. In addition, the inhibition of bioluminescence result in the series with A. fischeri [5] (10 mM, 120 min exposure time) was “over 60%”.

Consider “N,N,N-Trimethylammoniopropyl-6-monodeoxy-6-monohexadecanethiol-β-CD [QA-6S-C16-β-CD (9)]”, for which the “inhibitory effect (QS inhibition, bioluminescence)” value in the series with A. fischeri [1] (1 mM, time not stated) worked out at 48%. Further, in the series on A. fischeri [1], the 20% effect concentration (EC20) was found to be 170 µM. Further, the “inhibition of population growth” value with A. fischeri [2] (5 mM, 120 min) was found to be 38%. Moreover, the “inhibition of cell viability” value with A. fischeri [3] (5 mM) was 35%. Moreover, in series [4], the “WS, water solubility” value is around 10000 µg/mL. In addition, in series [6], the “average size of larger aggregates” value came out at 111 nm and the “size of larger aggregates with high polydispersity” value is recorded as 50–500 nm.

In the series on A. fischeri [1], “N,N,N-Trimethylammoniopropyl-α-CD [QA-α-CD (2), reference compound]” had a 20% effect concentration (EC20) of 3140 µM. For the same compound, the “inhibition of bioluminescence (significance)” value in the series with A. fischeri [1] (tested concentrations 0.08-10 mM, examined period 30-120 min) is recorded as “no significant inhibition”. Moreover, the “inhibition … (optical density)” value with A. fischeri [2] is reported as “up to 30%”. In addition, the “inhibition in the viability” value with A. fischeri [3] was 41%.

On to `OC[C@H]1O[C@@H]2O[C@H]3[C@H](O)[C@@H](O)[C@@H](O[C@H]4[C@H](O)[C@@H](O)[C@@H](O[C@H]5[C@H](O)[C@@H](O)[C@@H](O[C@H]6[C@H](O)[C@@H](O)[C@@H](O[C@H]7[C@H](O)[C@@H](O)[C@@H](O[C@H]8[C@H](O)[C@@H](O)[C@@H](O[C@H]9[C@H](O)[C@@H](O)[C@@H](O[C@H]1[C@H](O)[C@H]2O)O[C@@H]9CO)O[C@@H]8CO)O[C@@H]7CO)O[C@@H]6CO)O[C@@H]5CO)O[C@@H]4CO)O[C@@H]3CO` [γ-CD], for which the “quorum-quenching efficacy (reduction of bacterial bioluminescence)” value with A. fischeri [5] (previous study) is “ineffective”.

As for `OC[C@H]1O[C@@H]2O[C@H]3[C@H](O)[C@@H](O)[C@@H](O[C@H]4[C@H](O)[C@@H](O)[C@@H](O[C@H]5[C@H](O)[C@@H](O)[C@@H](O[C@H]6[C@H](O)[C@@H](O)[C@@H](O[C@H]7[C@H](O)[C@@H](O)[C@@H](O[C@H]8[C@H](O)[C@@H](O)[C@@H](O[C@H]1[C@H](O)[C@H]2O)O[C@@H]8CO)O[C@@H]7CO)O[C@@H]6CO)O[C@@H]5CO)O[C@@H]4CO)O[C@@H]3CO` [β-CD (5), Native β-CD, reference compound], the “inhibitory effect on bioluminescence, upper limit in any case” value in the series with A. fischeri [1] is at most 35%. The inhibition at 80 µM in the series on A. fischeri [2] (Aliivibrio fischeri, 0.5 h, read-out: inhibition of population growth, maximum) was at most 34%. Besides, the “inhibitive effect on cell viability, maximum” value in the series on A. fischeri [3] is given as 15%.

“N,N,N-Trimethylammoniopropyl-6-monodeoxy-6-monodecanethiol-α-CD [QA-6S-C10-α-CD (4)]” returned a reduction of bioluminescence in the series with A. fischeri [1] (1 mM, 120 min) of 69%. Besides, the EC20 in the series with A. fischeri [1] was found to be 200 µM. Besides, the EC50 in the series on A. fischeri [1] (50% inhibition of bioluminescence after 120 min exposure, read-out: EC50) was found to be 240 µM. For the same compound, in the series on A. fischeri [2], the “inhibition … (optical density)” value was “up to 30%”. Also, the “inhibition of the enzyme activity (cell viability)” value in the series with A. fischeri [3] (regardless of concentration) is 24–27%.
